Where no end group is shown, it is not given here.

The record followed here is patent publication US8501689B2, “Growth factor-mimicking peptides and uses thereof” (Caragen Co., Ltd., priority 2008, dated 2013).

Common to all, as to type: cell-based
The test system of one assay is HaCaT keratinocytes. Nature of the assay: SRB colorimetric assay, growth of HaCaT keratinocytes. As to conditions: 10 ng/ml or 1,000 ng/ml, 72 hr, serum-free medium, absorbance at 590 nm, FIG. 3a. The method, then:
(§1) In order to evaluate four peptides prepared in Preparation Examples 1-2 whether they have similar activities of growth factor-1, SRB (Sulforhodamine B; Sigma-Aldrich) colorimetric assay was carried out using HaCaT keratinocytes and NIH3T3 fibroblasts according to Rizzino et al. method (Rizzino, et al. Cancer Res., 48: 4266 (1988)).
(§2) HaCaT keratinocytes (The Korean Cell Line Bank) and NIH3T3 fibroblasts (The Korean Cell Line Bank) were cultured in 250 ml-flasks containing EMEM (Eagle's minimal essential media; Gibco, U.S.A.) supplemented with 10% FBS (fetal bovine serum). Cells cultured were treated with 0.25% trypsin solution to detach cells from the bottom of culture flasks and centrifuged to collect cell pellets. After cells were resuspended in EMEM not containing FBS, its aliquot (4×10^3 cells)was added to each well of 96-well plates and cultured under 7% CO2 for 24 hr at 37° C. After 24-hr culture, the medium was changed with a fresh medium not containing serum and cells were incubated with human aFGF (NIBSC, UK) or four peptides synthesized (10 ng/ml or 1,000 ng/ml) dissolved in water and 10% DMSO for 72 hr under the same conditions as described above. After removing supernatants, cells were washed once using PBS (phosphate buffered saline) and incubated with SRB solution. Cells were sufficiently washed with PBS and observed under a microscope to find cell viability. In addition, absorbance at 590 nm was measured to analyze cell proliferation.
FIG. 3a and FIG. 3b represent the analysis data for growth of keratinocytes and fibroblasts, respectively. FIG. 4 represents the growth pattern of keratinocytes and fibroblasts observed under microscope after 72 hr-treatment with peptides.

Another assay concerns fibronectin. Nature of the assay: Fibronectin ELISA in HaCaT keratinocytes. As to conditions: HaCaT incubated with peptides for 72 hr, FIG. 5b. The method, then:
(§3) HaCaT keratinocytes cultured for 48 hr were incubated with the peptides of the present invention for 72 hr. The levels of procollagen and fibronectin, indicators to show the improvement in skin wrinkle, were examined. The quantification was performed using Procollagen ELISA kit (Takara, Japan) and Fibronectin ELISA kit (CHEMICON, USA).
(In general: ELISA stands for enzyme-linked immunosorbent assay.)

The test system of the next assay is NIH3T3 fibroblasts. The assay can be described thus: SRB colorimetric assay, growth of NIH3T3 fibroblasts. As to conditions: NIH3T3, 10 ng/ml or 1,000 ng/ml, 72 hr, serum-free medium, absorbance at 590 nm, FIG. 3b. How it is done:
as §1
as §2, with “Cells were sufficiently washed with PBS and observed under a microscope to find cell viability.” left out, “proliferation. […]” for “proliferation.”
For orientation: The SRB assay estimates cell density from bound dye.

The test system of another assay is procollagen. The assay can be described thus: Procollagen ELISA in HaCaT keratinocytes. Conditions: HaCaT incubated with peptides for 72 hr, FIG. 5a. The method, then:
as §3

As for Ac-YKSKKGGWTH [peptide 1], the growth of keratinocytes result with HaCaT keratinocytes is “much better effects on growth of keratinocytes”. Besides, the “level of fibronectin in keratinocytes” value in the assay on fibronectin is “strikingly facilitate the production of procollagen”. The growth of fibroblasts entry in the assay with NIH3T3 fibroblasts is “excellent effects on growth of fibroblasts”.
With “DSHTQYCFHGT [compound 3, corresponds to amino acids 10-20 of TGF-α]”, in the assay on HaCaT keratinocytes, the growth of keratinocytes entry is “much better effects on growth of keratinocytes”.
Turning to “GYVGVRCEAADLDA [compound 4, corresponds to amino acids 38-49 of TGF-α]”, the growth of keratinocytes result in the assay with HaCaT keratinocytes is “much better effects on growth of keratinocytes”. In the assay on fibronectin, the “level of fibronectin in keratinocytes” value is listed as “strikingly facilitate the production of procollagen”.
“YISKKHAGKNWF [corresponds to amino acids 111-122 of aFGF]”: the “level of procollagen in keratinocytes” value with procollagen is given as “remarkably promote the production of procollagen”. The growth of fibroblasts result with NIH3T3 fibroblasts is listed as “excellent effects on growth of fibroblasts”.
